Where “and” joins values, the source holds several entries; their conditions need not be identical. Identical values can stand only once.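 Values below derive from 48-hour exposures of cells grown in 96-well plates, with endpoints linearly interpolated between the two concentrations bracketing the appropriate inhibition level. GI50 marks 50% less growth. Definition used: TGI = concentration required for complete inhibition of growth.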
Legend:
Assay in all cases: NCI-60 cell line screen, 48 h
UO-31 renal = test system: UO-31 renal
OVCAR-4 ovarian = test system: OVCAR-4 ovarian
LOX IMVI melanoma = test system: LOX IMVI melanoma
RPMI-8226 leukemia = test system: RPMI-8226 leukemia
CCRF-CEM leukemia = test system: CCRF-CEM leukemia
EKVX NSCLC = test system: EKVX NSCLC
SN12C renal = test system: SN12C renal
MCF7 breast = test system: MCF7 breast
HS 578T breast = test system: HS 578T breast
PC-3 prostate = test system: PC-3 prostate

## COC(=O)C1CCc2c1c(=O)n1c([nH]c3ccccc31)c2C#N (stereo unspecified)
UO-31 renal
  TGI: > 100 µM
OVCAR-4 ovarian
  TGI: > 100 µM
LOX IMVI melanoma
  TGI: > 100 µM
RPMI-8226 leukemia
  TGI: > 100 µM
CCRF-CEM leukemia
  TGI: > 100 µM
EKVX NSCLC
  TGI: > 100 µM

## c1ccc([P+](CCSCCSCC[P+](c2ccccc2)(c2ccccc2)c2ccccc2)(c2ccccc2)c2ccccc2)cc1
UO-31 renal
  TGI: > 100 µM
OVCAR-4 ovarian
  TGI: > 100 µM
SN12C renal
  TGI: > 100 µM
MCF7 breast
  TGI: > 100 µM
EKVX NSCLC
  TGI: > 100 µM
HS 578T breast
  TGI: > 100 µM

## COc1ccc(NC(=O)C(=O)c2c(O)c3ccc(O)cc3oc2=O)c([N+](=O)[O-])c1
UO-31 renal
  TGI: > 100 µM
OVCAR-4 ovarian
  TGI: > 100 µM
LOX IMVI melanoma
  TGI: > 100 µM
CCRF-CEM leukemia
  TGI: > 100 µM
EKVX NSCLC
  TGI: > 100 µM

## COc1ccc(C/C(=N/O)C(=O)NCCc2cc(Br)c(OCCCN(C)C)c(Br)c2)cc1Br
UO-31 renal
  TGI: 42.3 µM
OVCAR-4 ovarian
  TGI: 38.8 µM
SN12C renal
  TGI: 33.8 µM
LOX IMVI melanoma
  TGI: 30.1 µM
EKVX NSCLC
  TGI: 43 µM

## C[C@@H](NC1CCCC[C@H]1O)c1ccccc1 (stereo partly specified)
UO-31 renal
  TGI: > 100 µM
OVCAR-4 ovarian
  TGI: > 100 µM
SN12C renal
  TGI: > 100 µM
LOX IMVI melanoma
  TGI: > 100 µM
RPMI-8226 leukemia
  TGI: > 100 µM
CCRF-CEM leukemia
  TGI: > 100 µM
EKVX NSCLC
  TGI: > 100 µM

## COC(=O)CC(NC(=O)OCc1ccccc1)C(C(C)=O)C(=O)OCc1ccccc1 (stereo unspecified)
UO-31 renal
  TGI: > 31.6 µM
SN12C renal
  TGI: > 31.6 µM
LOX IMVI melanoma
  TGI: > 100 µM
RPMI-8226 leukemia
  TGI: > 31.6 µM
CCRF-CEM leukemia
  TGI: > 31.6 µM
EKVX NSCLC
  TGI: > 31.6 µM

## O=C(c1ccccc1)c1c(CC(O)c2ccccn2)n(C(=O)c2ccccc2)c2ccccc12 (stereo unspecified)
UO-31 renal
  TGI: 67.5 µM
OVCAR-4 ovarian
  TGI: > 100 µM
RPMI-8226 leukemia
  TGI: 56 µM
CCRF-CEM leukemia
  TGI: 80.5 µM

## CC1=Nc2ccccc2S/C1=C(/C)NNS(=O)(=O)c1ccc(C)cc1
UO-31 renal
  TGI: > 100 µM
OVCAR-4 ovarian
  TGI: > 100 µM
SN12C renal
  TGI: > 100 µM
LOX IMVI melanoma
  TGI: > 100 µM
RPMI-8226 leukemia
  TGI: > 100 µM
CCRF-CEM leukemia
  TGI: 86.7 µM
EKVX NSCLC
  TGI: > 100 µM

## COc1cc2c(cc1OC)[C@@H](Nc1ccc(C#N)cc1)C1COC(=O)[C@@H]1C2c1cc(OC)c(O)c(OC)c1 (stereo partly specified)
UO-31 renal
  TGI: 11.9 µM
PC-3 prostate
  TGI: > 100 µM
OVCAR-4 ovarian
  GI50: 19.1 µM and 26.8 µM
  TGI: 75.1 µM and > 100 µM
SN12C renal
  TGI: 2.28 µM
RPMI-8226 leukemia
  TGI: 0.225 µM and 0.65 µM
CCRF-CEM leukemia
  GI50: 0.0111 µM and 0.0152 µM
  TGI: 0.0709 µM and 0.451 µM
MCF7 breast
  TGI: > 100 µM
EKVX NSCLC
  GI50: 16.4 µM and 6.9 µM
  TGI: 95 µM and 62.5 µM
HS 578T breast
  TGI: 7.54 µM

## CCN(CC)C(=O)Cc1c(C(=O)N(CC)CC)c(=O)nc2sccn12
UO-31 renal
  TGI: > 100 µM
OVCAR-4 ovarian
  TGI: > 100 µM
SN12C renal
  TGI: > 100 µM
LOX IMVI melanoma
  TGI: > 100 µM
RPMI-8226 leukemia
  TGI: > 100 µM
CCRF-CEM leukemia
  TGI: > 100 µM
EKVX NSCLC
  TGI: > 100 µM

## CCOC(=O)/C(=C/N1CCN(C(=O)c2ccco2)C1=S)C(=O)c1ccccc1
UO-31 renal
  GI50: 9.99 µM
  TGI: 19.3 µM
PC-3 prostate
  GI50: 19.4 µM
  TGI: > 50 µM
OVCAR-4 ovarian
  GI50: 31 µM
  TGI: > 50 µM
SN12C renal
  GI50: 8.1 µM
  TGI: 17.4 µM
LOX IMVI melanoma
  GI50: 6.48 µM
  TGI: 14.2 µM
RPMI-8226 leukemia
  GI50: 12.4 µM
  TGI: > 50 µM
CCRF-CEM leukemia
  GI50: 15.6 µM
  TGI: > 50 µM
EKVX NSCLC
  GI50: 9.53 µM
  TGI: 23.7 µM

## CNNC1=NS(=O)(=O)c2cc(C#N)c(Cl)cc2S1
UO-31 renal
  TGI: 3.38 µM
PC-3 prostate
  TGI: > 10 µM
OVCAR-4 ovarian
  TGI: > 10 µM
SN12C renal
  TGI: > 10 µM
LOX IMVI melanoma
  TGI: > 10 µM
RPMI-8226 leukemia
  TGI: > 10 µM
CCRF-CEM leukemia
  TGI: > 10 µM
EKVX NSCLC
  TGI: > 10 µM
HS 578T breast
  TGI: > 10 µM

## CC(C)(O)[C@@H]1CC[C@@]2(C)CCCC(O)C2(O)C1 (stereo partly specified)
UO-31 renal
  TGI: > 100 µM
OVCAR-4 ovarian
  TGI: > 100 µM
SN12C renal
  TGI: > 100 µM
LOX IMVI melanoma
  TGI: > 100 µM
RPMI-8226 leukemia
  TGI: > 100 µM
CCRF-CEM leukemia
  TGI: > 100 µM

Source: PubChem BioAssay (NCI)
